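Where inhibition never reached the appropriate level, the endpoint shown equals the highest concentration tested. Otherwise, values were interpolated linearly from a five-concentration, 48-hour dose response in 96-well plates. GI50 marks 50% less growth. At the TGI there is no net growth.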
Legend:
Assay in all cases: NCI anticancer screen, dose series, 48 h
786-0 renal = tested on: 786-0 renal
CCRF-CEM leukemia = tested on: CCRF-CEM leukemia
COLO 205 colon = tested on: COLO 205 colon
K-562 leukemia = tested on: K-562 leukemia
NCI-H226 lung = tested on: NCI-H226 lung
NCI-H522 lung = tested on: NCI-H522 lung
OVCAR-8 ovarian = tested on: OVCAR-8 ovarian
PC-3 prostate = tested on: PC-3 prostate
RPMI-8226 leukemia = tested on: RPMI-8226 leukemia
SK-MEL-2 melanoma = tested on: SK-MEL-2 melanoma

Structure (SMILES) | TGI (786-0 renal) [µM] | TGI (CCRF-CEM leukemia) [µM] | TGI (COLO 205 colon) [µM] | TGI (K-562 leukemia) [µM] | TGI (NCI-H226 lung) [µM] | TGI (NCI-H522 lung) [µM] | TGI (OVCAR-8 ovarian) [µM] | TGI (PC-3 prostate) [µM] | TGI (RPMI-8226 leukemia) [µM] | TGI (SK-MEL-2 melanoma) [µM] | GI50 (786-0 renal) [µM] | GI50 (CCRF-CEM leukemia) [µM] | GI50 (COLO 205 colon) [µM] | GI50 (K-562 leukemia) [µM] | GI50 (NCI-H226 lung) [µM] | GI50 (NCI-H522 lung) [µM] | GI50 (OVCAR-8 ovarian) [µM] | GI50 (PC-3 prostate) [µM] | GI50 (RPMI-8226 leukemia) [µM] | GI50 (SK-MEL-2 melanoma) [µM]
CCCCCCCCC/C=C1\CCC(CN2CCOCC2)C1=O (centres undefined) | 9.69 | 6.56 | 11.2 | 15.6 | 15.3 | 6.64 | 3.13 | 4.25 | 1.08 | 14.6 |  |  |  |  |  |  |  |  |  | 
COc1ccc(-c2nnc(COc3ccc(NC(=O)Nc4cc(C(F)(F)F)cc(C(F)(F)F)c4)cc3F)o2)cc1 | 4.7 | 11.6 | 3.3 | 13.5 | 9.69 | 5.35 | 5.85 | 4.34 | 4.2 | 5.82 | 2.2 | 2.86 | 1.9 | 2.66 | 2.63 | 2.15 | 1.89 | 1 | 1.35 | 2.66
CCN(CC)c1ccc(-c2cc(-c3cc(OC)c(OC)c(OC)c3)nc(N3CCOCC3)c2C#N)cc1 | 9.94 | > 44.5 | 7.48 | > 19.9 | 42.2 | 83.3 | > 100 | > 100 | 44.7 | > 26.2 | 1.9 | 0.611 | 0.439 | 1 | 2.34 | 7.07 | 1.91 | 1.27 | 0.0387 | 3.15
Fc1cc2[nH]ncc2c2c3c(c(-c4cn[nH]c4)nc12)CCCC3 | > 28 | > 100 | 2.62 | > 100 | 5.85 | 6.12 | > 30.2 | 33.7 | 13.6 | 3.46 | 2.38 | 1.13 | 0.658 | 1.55 | 1.28 | 0.829 | 1.48 | 1.77 | 1.08 | 0.842
CN1CCN(CCCn2c(=O)c3sc4ncccc4c3n3nnc(-c4ccccc4)c23)CC1 | 14.5 | 5.29 | 14.6 | 2.05 | 15.3 | 14.4 | 15.3 | 13.4 | 15.8 | 16.7 | 7.39 | 1.55 | 7.35 | 0.881 | 7.4 | 7.23 | 7.83 | 6.27 | 6.1 | 8.8
Cc1cc(-c2ccc3nc(C4CCOCC4)n(CCOC(F)(F)F)c3c2)cn(C)c1=O |  | > 100 | 2.97 |  | 8.47 | 9.31 |  |  | > 31.6 | 15.5 | 1.03 | 1.71 |  | 0.507 |  | 0.244 | 0.952 | 1.04 | 0.13 | 0.988
C[C@@H]1CCC2[C@@H](C)[C@@H](OCC(CO[C@H]3OC4O[C@@]5(C)CC[C@H]6[C@H](C)CCC([C@H]3C)[C@@]46OO5)OC(=O)CCC(=O)O)OC3O[C@@]4(C)CC[C@@H]1[C@]32OO4 (some centres undefined) | 17.3 | > 47.3 | 12.5 | > 42.2 | 40 | 15.4 | 27.2 | 14.7 | 16.5 | > 51.6 | < 0.0151 | < 0.0279 | < 0.01 | < 0.0479 | 0.933 | 0.0628 | 0.511 | < 0.01 | < 0.01 | 4.22
O=C(Nc1ccc(Cl)cc1)c1cccc(NC2=C(Cl)C(=O)N(Cc3ccccc3)C2=O)c1 | 20.9 | 12.3 | > 100 | 28.3 | 21.3 | 29 | 21.6 | 21.2 | 18.6 | 41.5 | 7.83 | 2.73 | 21.7 | 5.83 | 4.31 | 7.09 | 10 | 9.12 | 4.67 | 14.9
O=c1c2sccc2n(CC2COc3ccccc3O2)c(=O)n1O (centres undefined) | > 100 | 94.4 | > 100 | > 100 | 83.6 | > 100 | > 100 | > 100 | 24.5 | 80.7 | 41.7 | 7 | 36.8 | 4.1 | 24.6 | 6.2 | 30.5 | 18.2 | 3.9 | 23.5
CC[C@H](Nc1ncnc2nc[nH]c12)c1oc2ccccc2c(=O)c1-c1cccc(F)c1 | > 100 | > 100 | > 100 | > 100 | > 100 | > 100 | > 100 | > 100 | > 100 | 46.7 | 21.4 | 23.3 | 37.4 | 17.4 | 30.3 | 19.7 | 31.9 | 12.4 | 14.5 | 18.4
COc1cccc(-c2nc(-c3ccc(NC(=O)C(C)C)cc3)[nH]c2-c2ccnc(Br)c2)c1 | > 100 | > 100 | 7.59 | > 100 | 21.4 | > 100 | > 100 | > 100 | 2.85 | 6.34 | 1.3 | 2.99 | 2.81 | 3.07 | 2.53 | 2.8 | 3.61 | 3.02 | 0.511 | 2.3
N=Nc1c(OC(=O)Nc2cccc(Cl)c2)[nH]c2ccccc12 | 18.2 | 21.9 | 19.4 | > 52.8 | 34.5 | 11.3 | 20 | 14.6 | 10.7 | 24.4 |  |  |  |  |  |  |  |  |  | 

— PubChem BioAssay (NCI)
